Experimental data from publication PMC7377239, “Cardiovascular Effects of Polychlorinated Biphenyls and Their Major Metabolites” (Environmental Health Perspectives, 2020).
Structures can show the parent of a compound that is named as a salt. Where two headings read alike, the source gives them in different places.

Key:
[1] = tested on: HUVECs; experiment: High-content imaging cytotoxicity in HUVECs, 24 h; format: cell-based, human; settings: Homo sapiens, HUVEC, 24 h; for viability at 0.01 µM / activity at 0.01 µM / viability at 0.1 µM / activity at 0.1 µM / viability at 1 µM / activity at 1 µM / viability at 10 µM / activity at 10 µM / viability at 100 µM / activity at 100 µM: 0.00 µM = 100.00; for viability at 0.1 µM / activity at 0.1 µM: 0.10 µM
How it was run: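 HUVECs (passages 1–5) were plated at 750 cells/well without fibronectin, grown to a monolayer (3–5 d) and exposed to compounds for 24 h at 37°C, 5% CO2. Hoechst 33342, MitoTracker Orange and calcein AM staining was imaged at 10×; readouts were normalized to 0.5% DMSO vehicle and fit to a four-parameter logistic model.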

[2] = tested on: HUVECs; experiment: Tube formation (tubulogenesis) assay in HUVECs, 18 h; format: cell-based, human; settings: Homo sapiens, HUVEC, 18 h; for activity at 0.1 µM: 0.10 µM
How it was run: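 HUVECs (passage 1–5) seeded on reduced-growth-factor basement membrane and exposed to compounds overnight at 37°C, 5% CO2, in 2× maintenance medium with 12.5 ng/mL VEGF; 0.5% DMSO vehicle. Calcein AM-stained tube networks imaged and analysed; vehicle-normalized readouts fit to four-parameter logistic, POD set at one SD of vehicle means.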

[3] = HUVECs, 24 hr, read-out: huvec.cyto.24hr
[4] = HUVECs, 24 hr, read-out: huvec.mito.24hr
[5] = HUVECs, 24 hr, read-out: huvec.mitoint.24hr
[6] = HUVECs, 24 hr, read-out: huvec.nma.24hr
[7] = HUVECs, 24 hrs, read-out: huvec.tc.24hrs
[8] = HUVECs, 0.00 µM = 100.00, read-out: huvec.mtl.18hr
[9] = HUVECs, 0.00 µM = 100.00, read-out: huvec.tlps.18hr
[10] = HUVECs, 0.00 µM = 100.00, read-out: huvec.tta.18hr
[11] = HUVECs, 0.00 µM = 100.00, read-out: huvec.ttl.18hr

O=S(=O)(O)Oc1cc(-c2ccccc2)ccc1Cl [3-yl PCB 3 sulfate]
viability at 0.01 µM [1, 3]: 78.2%
activity at 0.01 µM [1, 4]: 77.8%
activity at 0.01 µM [1, 5]: 93.6%
activity at 0.01 µM [1, 6]: 96.6%
viability at 0.1 µM [1, 3]: 95.5%
activity at 0.1 µM [1, 4]: 95.5%
activity at 0.1 µM [1, 5]: 110%
activity at 0.1 µM [1, 6]: 102%
viability at 1 µM [1, 3]: 95.1%
activity at 1 µM [1, 4]: 94%
activity at 1 µM [1, 5]: 93.8%
activity at 1 µM [1, 6]: 95.5%
viability at 10 µM [1, 3]: 91.1%
activity at 10 µM [1, 4]: 89.7%
activity at 10 µM [1, 5]: 80.7%
activity at 10 µM [1, 6]: 93.3%
viability at 100 µM [1, 3]: 98.8%
activity at 100 µM [1, 4]: 97.9%
activity at 100 µM [1, 5]: 105%
activity at 100 µM [1, 6]: 96%
minimal effective concentration ([1]; HUVECs, 24 hr, top concentration 100.00 µM, read-out: huvec.cyto.24hr POD): 100 µM
minimal effective concentration ([1]; HUVECs, 24 hr, top concentration 100.00 µM, read-out: huvec.mito.24hr POD): 100 µM
minimal effective concentration ([1]; HUVECs, 24 hr, top concentration 100.00 µM, read-out: huvec.mitoint.24hr POD): 100 µM
minimal effective concentration ([1]; HUVECs, 24 hr, top concentration 100.00 µM, read-out: huvec.nma.24hr POD): 100 µM
viability at 0.01 µM [1, 7]: 78.4%
viability at 0.1 µM [1, 7]: 95.5%
viability at 1 µM [1, 7]: 95.1%
viability at 10 µM [1, 7]: 91.1%
viability at 100 µM [1, 7]: 98.8%
minimal effective concentration ([1]; HUVECs, 24 hrs, top concentration 100.00 µM, read-out: huvec.tc.24hrs POD): 100 µM
activity at 0.01 µM [2, 8]: 95%
activity at 0.01 µM [2, 9]: 89.1%
activity at 0.01 µM [2, 10]: 78%
activity at 0.01 µM [2, 11]: 73.3%
activity at 0.1 µM [2, 8]: 100%
activity at 0.1 µM [2, 9]: 109%
activity at 0.1 µM [2, 10]: 141%
activity at 0.1 µM [2, 11]: 137%
activity at 1 µM [2, 8]: 94.1%
activity at 1 µM [2, 9]: 116%
activity at 1 µM [2, 10]: 124%
activity at 1 µM [2, 11]: 123%
activity at 10 µM [2, 8]: 91.9%
activity at 10 µM [2, 9]: 112%
activity at 10 µM [2, 10]: 114%
activity at 10 µM [2, 11]: 110%
activity at 100 µM [2, 8]: 62.3%
activity at 100 µM [2, 9]: 58.1%
activity at 100 µM [2, 10]: 63.7%
activity at 100 µM [2, 11]: 61.1%
minimal effective concentration ([2]; HUVECs, top concentration 100.00 µM, read-out: huvec.mtl.18hr POD): 11.5 µM
minimal effective concentration ([2]; HUVECs, top concentration 100.00 µM, read-out: huvec.tlps.18hr POD): 65.8 µM
minimal effective concentration ([2]; HUVECs, top concentration 100.00 µM, read-out: huvec.tta.18hr POD): 100 µM
minimal effective concentration ([2]; HUVECs, top concentration 100.00 µM, read-out: huvec.ttl.18hr POD): 52.1 µM

COc1ccc(-c2ccc(Cl)cc2)cc1 [4'-OMe-PCB 3, 4′-methoxy-4-chlorobiphenyl]
minimal effective concentration ([1]; cyto, 24 hr, read-out: POD huvec.cyto.24hr): 8.6 µM
minimal effective concentration ([1]; mito, 24 hr, read-out: POD huvec.mito.24hr): 5.97 µM
minimal effective concentration ([1]; mitoint, 24 hr, read-out: POD huvec.mitoint.24hr): 32 µM
minimal effective concentration ([1]; nma, 24 hr, read-out: POD huvec.nma.24hr): 1.41 µM
minimal effective concentration ([1]; tc, 24 hr, read-out: POD huvec.tc.24hr): 8.6 µM
minimal effective concentration ([2]; tube formation mtl, read-out: POD huvec.mtl.18hr): 7.13 µM
minimal effective concentration ([2]; tube formation tlps, read-out: POD huvec.tlps.18hr): 49.5 µM
minimal effective concentration ([2]; tube formation tta, read-out: POD huvec.tta.18hr): 8.82 µM
minimal effective concentration ([2]; tube formation ttl, read-out: POD huvec.ttl.18hr): 7.82 µM
